Measured values published in ChEMBL document CHEMBL1128585, “Synthesis and antiviral activity of 6-benzyl analogs of 1-[(2-hydroxyethoxy)methyl]-6-(phenylthio)thymine (HEPT) as potent and selective anti-HIV-1 agents” (J Med Chem, 1995).

Experiments:
[1] = Effective concentration required to achieve 50% protection of MT-4 cells against the cytopathic effect of HIV-1 virus.; assay type: functional, cell-based; details: Human immunodeficiency virus 1, MT4
[2] = system: MT4; experiment: Cytotoxic concentration required to reduce the viability of mock-infected MT-4 cells by 50%; assay type: functional; details: Homo sapiens
[3] = system: MT4; experiment: The cytotoxic concentration of compound required to reduce the viability of mock-infected MT-4 cells by 50% on HIV-1 virus LAV-2ROD strain; assay type: functional; details: Homo sapiens
[4] = species on record: Mus musculus; experiment: Reduced IL-3 dependent colony formation in murine bone marrow progenitor cells at 0.5 uM; assay type: functional
[5] = system: MT4; experiment: The effective concentration required to achieve 50% protection of MT-4 cells against the cytopathic effect of HIV-1 virus A012D strain; assay type: functional, cell-based; details: Homo sapiens
[6] = species on record: Mus musculus; experiment: Reduced GM-CSF dependent colony formation in murine bone marrow progenitor cells at 5 uM; assay type: functional
[7] = species on record: Homo sapiens; experiment: The effective concentration required to achieve 50% protection of human peripheral blood lymphocytes against the cytopathic effect of HIV-1 virus HTLV-IIIB strain; assay type: functional, organism-based
[8] = species on record: Mus musculus; experiment: Reduced IL-3 dependent colony formation in murine bone marrow progenitor cells at 50 uM; assay type: functional
[9] = species on record: Mus musculus; experiment: Reduced IL-3 dependent colony formation in murine bone marrow progenitor cells at 0.05 uM; assay type: functional
[10] = species on record: Mus musculus; experiment: Reduced GM-CSF dependent colony formation in murine bone marrow progenitor cells at 0.5 uM; assay type: functional
[11] = species on record: Mus musculus; experiment: Reduced GM-CSF dependent colony formation in murine bone marrow progenitor cells at 50 uM; assay type: functional
[12] = species on record: Homo sapiens; experiment: The cytotoxic concentration of compound required to reduce the viability of mock-infected PBL cells by 50% on HIV-1 virus HTLV-IIIB strain; assay type: functional
[13] = system: MT4; experiment: The cytotoxic concentration of compound required to reduce the viability of mock-infected MT-4 cells by 50% on HIV-1 virus A012D strain; assay type: functional; details: Homo sapiens
[14] = species on record: Mus musculus; experiment: Reduced IL-3 dependent colony formation in murine bone marrow progenitor cells at 5 uM; assay type: functional
[15] = system: MT4; experiment: The effective concentration required to achieve 50% protection of MT-4 cells against the cytopathic effect of HIV-2 virus LAV-2ROD; assay type: functional, cell-based; details: Homo sapiens
[16] = species on record: Mus musculus; experiment: Reduced GM-CSF dependent colony formation in murine bone marrow progenitor cells at 0.05 uM; assay type: functional
[17] = species on record: Mus musculus; experiment: Reduced IL-3 dependent colony formation in murine bone marrow progenitor cells at 5uM; assay type: functional
[18] = species on record: Mus musculus; experiment: Reduced GM-CSF dependent colony formation in murine bone marrow progenitor cells at 5uM; assay type: functional

Q: With `CC(C)c1c(Cc2ccccc2)n(COCCO)c(=O)[nH]c1=O` as the compound, how does the EC50 [1] read?
A: 0.063 µM

Q: What about the CC50 [2] of the same compound?
A: 295 µM

Q: For `CCOCn1c(Cc2ccccc2)c(C(C)C)c(=O)[nH]c1=O` [EMIVIRINE], which CC50 [3] is on record?
A: 102 µM

Q: And the Colony_count [4]?
A: 137

Q: And the EC50 [5]?
A: 0.003 µM

Q: And the Colony_count [6]?
A: 77

Q: And the EC50 [7]?
A: 0.004 µM

Q: And the EC50 [1]?
A: 0.0042 µM

Q: What about the Colony_count [8] of the same compound?
A: 109

Q: And the Colony_count [9]?
A: 136

Q: And the Colony_count [10]?
A: 75

Q: And the Colony_count [11]?
A: 57

Q: And the CC50 [12]?
A: 90 µM

Q: What about the CC50 [2] of the same compound?
A: 186 µM

Q: What about the CC50 [13] of the same compound?
A: 102 µM

Q: And the Colony_count [14]?
A: 137

Q: And the EC50 [15]?
A: > 102 µM

Q: And the Colony_count [16]?
A: 89

Q: Which results are given for `CCOCn1c(Cc2ccccc2)c(CC)c(=O)[nH]c1=O`?
A: EC50 [1]: 0.041 µM; CC50 [2]: 245 µM

Q: With `CCc1c(Cc2cc(C)cc(C)c2)n(COCCO)c(=O)[nH]c1=O` as the compound, how does the EC50 [1] read?
A: 0.013 µM

Q: And the CC50 [2]?
A: 281 µM

Q: With `CCOCn1c(Cc2cc(C)cc(C)c2)c(C(C)C)c(=O)[nH]c1=O` as the compound, how does the EC50 [1] read?
A: 0.0006 µM

Q: What about the CC50 [2] of the same compound?
A: 43 µM

Q: Which EC50 [1] does the source give for `Cc1c(CCc2ccccc2)n(COCCO)c(=O)[nH]c1=O` here?
A: > 444 µM

Q: And the CC50 [2]?
A: 444 µM

Q: Which results are given for `CCCCn1c(Cc2ccccc2)c(C(C)C)c(=O)[nH]c1=O`?
A: EC50 [1]: 0.042 µM; CC50 [2]: 58 µM

Q: For `Cc1c(Cc2ccccc2)n(COCCO)c(=O)[nH]c1=O`, which EC50 [1] is on record?
A: 23 µM

Q: Which EC50 [1] does the source give for `CCCCn1c(Cc2ccccc2)c(CC)c(=O)[nH]c1=O` here?
A: 0.21 µM

Q: What about the CC50 [2] of the same compound?
A: > 500 µM

Q: Which EC50 [1] does the source give for `CCOCn1c(Cc2cc(C)cc(C)c2)c(CC)c(=O)[nH]c1=O` here?
A: 0.0016 µM

Q: What about the CC50 [2] of the same compound?
A: 207 µM

Q: Which EC50 [1] does the source give for `Cc1c(Sc2ccccc2)n(COCCO)c(=O)[nH]c1=O` [HEPT] here?
A: 7 µM

Q: What about the CC50 [2] of the same compound?
A: 740 µM

Q: With `Cc1cc(C)cc(Cc2c(C(C)C)c(=O)[nH]c(=O)n2COCCO)c1` as the compound, how does the EC50 [1] read?
A: 0.0027 µM

Q: What about the CC50 [2] of the same compound?
A: 221 µM

Q: With `COCCn1c(Cc2ccccc2)c(C(C)C)c(=O)[nH]c1=O` as the compound, how does the EC50 [1] read?
A: 0.052 µM

Q: What about the CC50 [2] of the same compound?
A: 195 µM

Q: What does the source list for `Cc1cn([C@H]2C[C@H](N=[N+]=[N-])[C@@H](CO)O2)c(=O)[nH]c1=O` [ZIDOVUDINE]?
A: CC50 [3]: 7.8 µM; Colony_count [4]: 109; Colony_count [17]: 74; EC50 [5]: 0.3 µM; EC50 [7]: 0.002 µM; EC50 [1]: 0.003 µM; Colony_count [8]: 10; Colony_count [9]: 141; Colony_count [10]: 70; Colony_count [11]: 14; CC50 [12]: 12 µM; CC50 [2]: 7.8 µM; CC50 [13]: 7.8 µM; Colony_count [18]: 47; Colony_count [16]: 85

Q: What does the source list for `CCc1c(Cc2ccccc2)n(CCOC)c(=O)[nH]c1=O`?
A: EC50 [1]: 0.25 µM; CC50 [2]: 362 µM

Q: With `CCc1c(Cc2ccccc2)n(COCCO)c(=O)[nH]c1=O` as the compound, how does the EC50 [1] read?
A: 0.35 µM

Q: And the CC50 [2]?
A: 391 µM

Q: What does the source list for `Cc1c(-c2ccccc2)n(COCCO)c(=O)[nH]c1=O`?
A: EC50 [1]: > 166 µM; CC50 [2]: 166 µM
